A short description of series [1]: Stability of kifunensine ester compounds in buffered cell culture medium (MALDI-TOF MS). Type of series: physicochemical. Particulars: 5 days' incubation in buffered cell culture medium at +37° C.; signal vs hydrolysis product kifunensine. On the procedure:
(§1) Serum was obtained from laboratory mice according to ethical permission, or from healthy human volunteers, and prepared with standard procedures. Buffer stability test were performed either in phosphate-buffered saline (PBS, Gibco) or standard cell culture medium recommended for SK-BR-3 cells by the ATCC (about neutral pH). Payload-linker molecules were incubated in serum, buffer or medium, after which the incubation mixture was analyzed by MALDI-TOF MS as described above. […] Similar studies were also conducted with the 33DFTG-ester compounds, further verifying the observation of stabilization by carboxylic acid modifications of the ester against esterase hydrolysis. However, all the kifunensine ester compounds, when applied in 10 μM concentration to SK-BR-3 cell culture for three days, were active in mannosidase I inhibition (as shown by MALDI-TOF MS analysis of neutral N-glycans of the SK-BR-3 cells after the incubation as described below), showing that regardless of the relative protection from serum esterase hydrolysis, the esters could still be hydrolysed in cells to liberate the active payload.

Series [2] is described as follows: Stability of kifunensine ester compounds in mouse serum (MALDI-TOF MS). Format: in vitro ADME. The settings on record: 4 days' incubation in mouse serum at +37° C. On the procedure:
as §1

Series [3] concerns immature dendritic cells (iDCs) with SK-BR-3 cells. The series is described as follows: Dendritic cell activation assay (iDC / SK-BR-3 co-culture, fractalkine secretion). Format: cell-based, human. The settings on record: 5 nM test compound. From the text:
Monocytes were isolated from human peripheral blood (buffy coat) from healthy adult donors (Finnish Red Cross Blood Service) by using magnetic-activated microbead based cell sorting for CD14 positive cells (Miltenyi Biotec). Monocytes were differentiated to immature dendritic cells (iDCs) by using Mo-DC Differentiation Medium (Miltenyi Biotec) according the manufacturer's instructions. On day 6, to analyze cell surface expression of maturation markers, the iDCs were labeled with specific monoclonal antibodies for CD209 (R&D Systems) and CD14 (eBioscience). Nonspecific antibody binding was assessed using appropriate isotype controls. The iDCs were used for co-culture experiment on day 7.
SK-BR-3 cells (ATCC) were cultured in DMEM (Gibco) containing GlutaMAX and supplemented with 10% heat-inactivated fetal bovine serum (FBS, Gibco). SK-BR-3 cells were plated in 96-well plate (5000 c/well) in the presence or absence of […] kifunensine (Carbosynth Limited) and cultured for 5 days. Before start of the co-culture, SK-BR-3 cells were washed twice with RPMI 1640 medium (Gibco). Differentiated iDCs were collected and 0.11×10^6 cells/well were added together with the test compounds to SK-BR-3 cells and cells were incubated for 24 h at +37° C. in 5% CO2. The experiment medium was RPMI 1640 medium (Gibco) containing 10 mM Hepes and 2 mM glutamine and supplemented with 10% FBS (Gibco). All treatments were performed as duplicates. […] Phorbol 12-myristate 13-acetate (PMA, Abcam) was used as positive control. After 24 h co-culture of iDCs and SKBR-3 cells, the cell supernatants were collected and centrifuged (3000 g, 5 min, +4° C.) to remove cells and debris. The supernatants were frozen and subjected to cytokine and chemokine analysis with Human Cytokine 48-Plex Discovery Assay (EVE Technologies, Canada).

For series [4], the system named is mannosidase I. Description: N-glycan profiling of SK-BR-3 cells after inhibitor/ADC treatment (mannosidase I inhibition). Type of series: cell-based. The settings on record: 10 μM, 3 days.
Description: SK-BR-3 breast cancer cells (ATCC) were cultured in recommended conditions and incubated with glycosylation inhibitors and ADCs for three days. The cells were then subjected to N-glycan profiling with MALDI-TOF MS essentially as described in Leijon et al. 2017, J Clin Endocrinol Metab 102(11):3990-4000, although without the deparaffinization step.
The test system of series [5] is processing α-mannosidase. The series is described as follows: N-glycan profile of HCC-1954 cancer cells after kifunensine or ADC. Type of series: cell-based. Particulars: HCC-1954 cells, 3-4 days; 10 pM kifunensine; 10 nM or 100 nM ADC. On the procedure:
(§2) JIMT-1 cancer cells (DSMZ-German Collection of Microorganisms and Cell Cultures; variable/medium HER2 expression) and HCC-1954 cancer cells (ATCC; high HER2 expression) were cultured according to the manufacturers' instructions in standard cell culture conditions and incubated for 3-4 days with either […] kifunensine or trastuzumab-kifunensine ADCs. Effect on N-glycan profiles of the cells was analyzed by isolating cellular N-glycans and MALDI-TOF MS as described above.

The subject of series [6] is processing α-mannosidase. Description: N-glycan profile of JIMT-1 cancer cells after kifunensine or ADC. Type of series: cell-based. Particulars: JIMT-1 cells, 3-4 days. On the procedure:
as §2

The test system of series [7] is B16-F10 melanoma subcutaneous tumor. The series is described as follows: Syngeneic B16-F10 melanoma subcutaneous tumor model. Type of series: in vivo, C57BL/6J mice. Particulars: day 15; three 10 mg/kg doses on days 2, 7 and 12 (i.v.; anti-PD-1 i.p.); control group 1534 mm^3. On the procedure: Treatment groups (n=7) were administered with three 10 mg/kg intravenous infusions of antibody or ADC to the tail vein in PBS on days 2, 7 and 12 after subcutaneous inoculation of 0.5 million B16-F10 cells in each mouse. Anti-PD-1 antibody (n=7) was administered by intraperitoneal injection. Control mice (n=5) received no injections. Plotting of the average tumor size was stopped when first mouse in the group was killed due to tumor growth.
Tumor growth was followed by palpation. After caliper measurement, tumor volume was calculated according to 0.5×length×width^2. The first dosings were administered 2 days after inoculation and subsequent doses at 5 days' intervals. Mice were randomly divided into study groups.
The B16-F10 tumor-bearing mice (strain C57BL/6J) were administered as described above with three 10 mg/kg i.v. (intravenous infusion to the tail vein in PBS) doses each of avelumab, avelumab-cyclo-MeMe-kifunensine (DAR=21-28) and avelumab-AANA-kifunensine (DAR=8) as well as with three 10 mg/kg i.p. (intraperitoneal injection in PBS) doses of anti-mouse-PD-1 antibody (InvivoMAb, clone RMP1-14, rat IgG2a kappa). Control mice received no injections. All study groups included 7 tumor-bearing mice while the control group included 5 tumor-bearing mice.

Series [8] deals with mannosidase I. Description: ADC activity in SK-BR-3 cells after incubation of the ADC in human and mouse sera. Type of series: cell-based. The settings on record: 7 days' incubation in both human and mouse sera, then 10 nM in SK-BR-3 culture for three days.
Series [9] concerns HCC-1954 xenograft tumors. Description: HCC-1954 xenograft: N-glycan profiling of tumors and tissues after ADC dosing. Type of series: in vivo, mice (Balb/cAnNRj-Foxn1nu-nu). Particulars: three 10 mg/kg i.v. doses, tumors collected on day 8. On the procedure:
The study was performed at the TCDM/Central Animal Laboratory, University of Turku, Finland, according to the appropriate ethical committee approval. Cells for inoculation to mice were prepared in vigorous exponential growth phase. 5 million cells in 50% Matrigel were inoculated s.c. to the flank of each mouse. Clinical signs and general behavior of the animals was observed regularly. […] Tumor growth was followed by palpation. After caliper measurement, tumor volume was calculated according to 0.5×length×width^2. The first dosings were administered when average tumor volume reached […]. Mice were evenly divided into study groups so that each group received similar distribution of different-sized tumors and the average tumor volumes were similar in each group. The mice received two additional dosings at 3 days and 6 days after the first dosing. Control mice received no dosings. At the end of the study on day 8 after the first dosing, the mice were sacrificed and representative samples of the tumors, blood (serum), liver, spleen, skin and muscle were taken and frozen for analyses.
Test substances were prepared as described above. […] The samples were subjected to N-glycan profiling with MALDI-TOF MS essentially as described above.

Setting [10] is: SK-BR-3 + iDCs 24 h co-culture, SK-BR-3 pretreated with 10 pM kifunensine for 5 days.

Where “and” joins values, the source holds several entries; their conditions need not be identical. Identical values can stand only once.

For `CC(C)(C)C(=O)OC[C@@H]1[C@@H](O)[C@H](O)[C@H](O)[C@H]2NC(=O)C(=O)N12` [6-(2,2-dimethyl)propanoyl-kifunensine, 9-(2,2-dimethylpropionyl)-kifunensine ester], the “stability against chemical hydrolysis in neutral pH” value (from here on “stability”) in series [1] is on record as “reasonably stable”. Moreover, in series [2], the “compound detected after incubation in mouse serum (ester hydrolysis)” value (shortened to “compound detected after incubation”) is “still present”.

Take `CC[C@H](C)C(=O)OC[C@@H]1[C@@H](O)[C@H](O)[C@H](O)[C@H]2NC(=O)C(=O)N12` [6-(2-methyl)butanoyl-kifunensine, 9-(2-methylbutanoyl)-kifunensine ester]: the “stability” value in series [1] is listed as “reasonably stable”. Moreover, the “compound detected after incubation” value in [2] is given as “not detected on day 4”.

Take `CCCC(=O)OC[C@@H]1[C@@H](O)[C@H](O)[C@H](O)[C@H]2NC(=O)C(=O)N12` [6-butanoyl-kifunensine, 9-butanoyl-kifunensine ester]: the “stability” value in [1] is “reasonably stable”. The “compound detected after incubation” value in series [2] is on record as “not detected on day 4”.

On to `O=C(O)CCC(=O)OC[C@@H]1[C@@H](O)[C@H](O)[C@H](O)[C@H]2NC(=O)C(=O)N12` [6-succinyl-kifunensine, 9-succinyl-kifunensine], for which the “stability” value in [1] is reported as “reasonably stable”. In addition, in [2], the “compound detected after incubation” value is given as “still present”.

In the case of `CCCCCCCCCCCCCC(=O)O[C@@H]1[C@@H](C)[C@@]2(O)[C@@H](C=C(CO)C[C@]3(O)C(=O)C(C)=C[C@@H]23)[C@@H]2C(C)(C)[C@]12OC(C)=O` [PMA, Phorbol 12-myristate 13-acetate], the Fractalkine came to 158.90 pg/mL in [3] (setting [10]); 45.18 pg/mL in [3] (SK-BR-3 + iDCs 24 h co-culture, without kifunensine pretreatment); 8.27 pg/mL in [3] (iDCs without SK-BR-3 cells).

For `O=C1N[C@@H]2[C@@H](O)[C@@H](O)[C@H](O)[C@@H](CO)N2C1=O` [kifunensine], the “average number of mannose residues (Man) in the Man5-9GlcNAc2 glycan signal series” value in the series with mannosidase I [4] is “over 8.5”. Also, in the series with processing α-mannosidase [5], the “relative proportion of complex-type N-glycans” value was “drastically diminished”. For the same molecule, the “N-glycan profile change (Man9 increase, complex-type decrease) relative to HCC-1954 cells” value in the series with processing α-mannosidase [6] is “less intensive”. The Fractalkine in series [3] (setting [10]) is 121 pg/mL and 120.94 pg/mL.

For “avelumab: recombinant fully human IgG1 anti-PD-L1 antibody (Bavencio)”, the average tumor volume in [7] stood at 472 mm^3.

Take “trastuzumab-[DBCO-PEG4-(octakis-amino)-γ-cyclodextrin-(9-(di-3-thio-propanoyl)-kifunensine)7]4 [trastuzumab-cyclo-kifunensine]”: the “reduction of activity after serum incubation” value in the series on mannosidase I [8] is listed as “over 50%”. Further, in [9], the “average mannose residues (Man) in the Man5-9GlcNAc2 glycan signal series of tumors” value was determined as 7.36, the “proportion of complex-type N-glycans in the tumors” value turned out to be 11% and the “proportion of high-mannose type N-glycans of the total neutral N-glycans in the tumors” value came out at 78%.

With “trastuzumab-[GalNAz-DBCO-PEG4-(octakis-amino)-γ-cyclodextrin-(9-(4-methyl-4-thio-butanoyl-3-thiopropanoyl)-kifunensine)7]4 [trastuzumab-cyclo-Me-kifunensine]”, in [9], the “average mannose residues (Man) in the Man5-9GlcNAc2 glycan signal series of tumors” value is listed as 7.40, the “proportion of complex-type N-glycans in the tumors” value turned out to be 10% and the “proportion of high-mannose type N-glycans of the total neutral N-glycans in the tumors” value came to 80%. In addition, in the series with processing α-mannosidase [5], the “relative proportion of complex-type N-glycans” value was “drastically diminished”. Moreover, the “N-glycan profile change (Man9 increase, complex-type decrease) relative to HCC-1954 cells” value with processing α-mannosidase [6] is reported as “less intensive”.
